Reference: ChEMBL document CHEMBL4842396, “Synthesis of 2-Prenylated Alkoxylated Benzopyrans by Horner-Wadsworth-Emmons Olefination with PPARα/γ Agonist Activity” (ACS Med Chem Lett, 2021)
Active and inactive are the calls of the source. The rule behind the calls is not given here.

Tests used:
[1] = biological target: T1, Peroxisome proliferator-activated receptor alpha (Homo sapiens) (UniProt Q07869); assay: Agonist activity at human PPARalpha at 10 uM; conditions: filed as agonist
T1 sequence (whole entry): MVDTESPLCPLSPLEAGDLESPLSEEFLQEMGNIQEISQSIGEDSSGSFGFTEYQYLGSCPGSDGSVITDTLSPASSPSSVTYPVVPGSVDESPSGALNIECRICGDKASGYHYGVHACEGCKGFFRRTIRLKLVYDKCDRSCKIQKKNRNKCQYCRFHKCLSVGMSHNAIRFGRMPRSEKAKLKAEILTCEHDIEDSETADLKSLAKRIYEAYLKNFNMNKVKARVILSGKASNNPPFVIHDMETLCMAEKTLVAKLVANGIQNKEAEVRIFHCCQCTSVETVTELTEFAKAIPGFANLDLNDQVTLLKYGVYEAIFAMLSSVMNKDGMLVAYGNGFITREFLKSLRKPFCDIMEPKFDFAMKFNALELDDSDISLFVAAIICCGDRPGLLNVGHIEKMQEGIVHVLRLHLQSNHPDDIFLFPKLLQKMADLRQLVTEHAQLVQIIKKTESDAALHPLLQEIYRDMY

[2] = biological target: T2, Peroxisome proliferator-activated receptor gamma (Homo sapiens) (UniProt P37231); assay: Agonist activity at human PPARgamma at 10 uM; conditions: filed as agonist
T2 sequence (whole entry): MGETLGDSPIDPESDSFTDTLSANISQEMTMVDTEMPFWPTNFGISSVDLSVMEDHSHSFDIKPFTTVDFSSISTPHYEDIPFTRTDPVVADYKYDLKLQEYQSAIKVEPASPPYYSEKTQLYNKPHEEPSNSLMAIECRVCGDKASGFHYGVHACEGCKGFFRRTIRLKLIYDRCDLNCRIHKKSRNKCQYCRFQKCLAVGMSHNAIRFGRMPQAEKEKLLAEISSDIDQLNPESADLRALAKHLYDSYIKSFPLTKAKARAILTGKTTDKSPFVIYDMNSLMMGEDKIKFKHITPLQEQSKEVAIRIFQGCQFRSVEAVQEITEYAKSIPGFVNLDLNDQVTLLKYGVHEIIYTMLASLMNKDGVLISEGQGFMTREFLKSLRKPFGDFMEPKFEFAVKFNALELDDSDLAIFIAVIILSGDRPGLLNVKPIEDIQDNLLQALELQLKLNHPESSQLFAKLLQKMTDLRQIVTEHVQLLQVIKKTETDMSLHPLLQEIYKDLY

Homo sapiens = organism: Homo sapiens; assay: Selectivity for agonist activity at human PPARalpha over agonist activity at human PPARgamma

Row | SMILES | Activity [1] | Activity [2] | Selectivity ratio (Homo sapiens)
1 | CCOC(=O)/C(=C/CC/C(C)=C/CCC1(C)CCc2cc(OCc3ccccc3)ccc2O1)OCC (configuration not stated) | Active | Active | 
2 | Cc1cccc(Nc2cc(Cl)nc(SCC(=O)O)n2)c1C | Active |  | 
3 | CCCOc1ccc2c(c1)CCC(C)(CC/C=C(\C)CC/C=C(\OCC)C(=O)OCC)O2 (configuration not stated) | Active | Active | 
4 | CCO/C(=C\CC/C(C)=C/CCC1(C)CCc2cc(OCc3ccccc3)ccc2O1)C(=O)O (configuration not stated) | Active | Active | 0.64
5 | CCOC(=O)/C(=C/CC/C(C)=C/CCC1(C)CCc2cc(OCc3ccc(F)cc3)ccc2O1)OCC (configuration not stated) | Active | Active | 

Next, values leading:

Row | Activity [1] | Activity [2] | Selectivity ratio (Homo sapiens) | SMILES
6 | Active | Active |  | CCOC(=O)/C(=C/CC/C(C)=C/CCC1(C)CCc2cc(OCc3ccccc3)ccc2O1)OCC(F)(F)F (configuration not stated)
7 | Active | Active |  | CCOC(=O)/C(=C/CCC1(C)CCc2cc(OCc3ccccc3)ccc2O1)OCC(F)(F)F (configuration not stated)
8 | Active | Active | 1.73 | CC1(CC/C=C(\OCC(F)(F)F)C(=O)O)CCc2cc(OCc3ccccc3)ccc2O1 (configuration not stated)
